Assay results as given in patent US20230355536A1, “OZONE-BASED LOW TEMPERATURE SILICON OXIDE COATING FOR PHARMACEUTICAL APPLICATIONS” (Applied Materials, Inc., priority 2022, published 2023).

What was measured:
Format in all cases: physicochemical
[1] = FTIR spectrum of API particles before and after coating process; conditions: coated versus uncoated API particles
From the text: FIGS. 2A-2B (FIG. 2B is a zoom-in image of FIG. 2A) show the FTIR spectrum of the coated and uncoated acetaminophen API particles.
FIGS. 6A-6B (FIG. 6B is a zoom-in image of FIG. 6A) show the FTIR spectrum of the coated and uncoated theophylline API particles.
FIGS. 9A-9B (FIG. 9B is a zoom-in image of FIG. 9A) show the FTIR spectrum of the coated and uncoated API-1 particles.

[2] = HPLC analysis of API integrity after ozone treatment; conditions: ozone generated with oxygen flow rate of 10, 30 and 50 sccm
Procedure: To test whether ozone treatment will affect the integrity of the API, the API (acetaminophen) was treated with ozone at various concentrations. Here, ozone was created by an ozone generator with various oxygen flow rates. The lower the oxygen flow rate, the high the ozone concentration is. Specifically, the API (acetaminophen) was treated with ozone generated with an oxygen flow rate of 10 sccm, 30 sccm and 50 sccm. FIGS. 8A-8D show the HPLC analysis of the API (acetaminophen) after ozone treatment. […] As shown in FIGS. 8A-8D, there were no new peaks (impurity) generated after ozone exposure with as low as 10 sccm oxygen flow rate (highest O3 concentration)

[3] = Wetting/dispersity of particles in DI water; conditions: acetaminophen particles dissolved into DI water
Procedure: The coated API (acetaminophen) particles were dissolved into DI water to test the wetting/dispersity properties of these particles.
As a control group, API (acetaminophen) was also treated with silane to apply a monolayer of silane.

Row | SMILES | change in FTIR signals before and after the coating process [1] | new peaks (impurity) in HPLC after ozone exposure [2] | wetting/dispersity [3]
1 | CC(=O)Nc1ccc(O)cc1 [acetaminophen] | no significant change | no new peaks | poor wetting/dispersity
2 | Cn1c(=O)c2[nH]cnc2n(C)c1=O [theophylline, reference compound] | no significant change |  | 
